Drawing on patent publication US20060276464A1, “Diarylsulfone sulfonamides and use thereof” (Wyeth, priority 2005, published 2006), this text covers IC50 and fold induction for 10 molecules.

“And” between values parts separate entries of the source, which are not always exact repeats. Equal entries are not always repeated. Where two headings read alike, the source gives them in different places.

Assay [1] concerns the target T1, SFRP-1 (Homo sapiens, UniProt Q8N474).
T1 sequence (Q8N474 32-314): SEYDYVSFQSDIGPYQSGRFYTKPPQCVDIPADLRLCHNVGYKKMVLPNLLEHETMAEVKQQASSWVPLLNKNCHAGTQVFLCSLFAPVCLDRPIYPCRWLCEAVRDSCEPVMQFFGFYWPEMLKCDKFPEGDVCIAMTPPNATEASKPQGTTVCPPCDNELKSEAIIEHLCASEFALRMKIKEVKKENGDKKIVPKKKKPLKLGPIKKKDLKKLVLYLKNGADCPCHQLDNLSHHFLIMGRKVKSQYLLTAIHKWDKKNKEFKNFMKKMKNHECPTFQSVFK
The assay is described as follows: Fluorescence polarization binding assay (competitive displacement of a probe compound from SFRP-1).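 Further: test compound competes with a fluorescent probe held by SFRP-1, seen as a drop in probe anisotropy after incubation in darkness, with anisotropy as function of rising compound dose.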 As to conditions: fluorescence anisotropy, 45 nM SFRP-1, 20 nM probe. A general note: Polarisation of emitted light reports the rotation of a fluorescent probe.

For assay [2], the target named is T1, SFRP-1. Put plainly: Cell-based assay for in vitro measurement of SFRP-1/SARP2 antagonist activity (U2OS cells co-transfected with 16x TCF-tk-Luciferase reporter, Wnt and hSFRP-1).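 Further: U2OS cells co-transfected with a TCF-tk luciferase reporter, a Wnt vector, hSFRP-1 or empty vector and CMV-βgal, luciferase luminescence read in cell lysates alongside βgal activity.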 The conditions noted are these: U2OS, single dose, luciferase reporter.
[3] abbreviates: read-out: Fold Induction with SFRP-1, Conc 15 μM, fold induction over SFRP-1 control, cells with SFRP-1.
Setting [4] is: read-out: Fold Induction without SFRP-1, Conc 15 μM, cells without SFRP-1 (specificity control).

A word on the IC50: it is the concentration that inhibits the measured activity by half. Low readings indicate inhibition by little substance, high ones a need for much substance. Turning to `CC(C)c1ccc(S(=O)(=O)c2ccc(NCCC#N)cc2)cc1S(=O)(=O)NCC1CCOCC1` [Example 536, 5-({4-[(2-cyanoethyl)amino]phenyl}sulfonyl)-2-isopropyl-N-(tetrahydro-2H-pyran-4-ylmethyl)benzenesulfonamide], the half-maximal inhibitory concentration (IC50) in assay [1] worked out at 400 nM. For the same molecule, the fold induction at 15 µM in assay [2] (setting [3]) turned out to be 3; in assay [2] (setting [4]), 1.2.

`CC(C)c1ccc(S(=O)(=O)c2ccc(NCCC#N)cc2)cc1S(=O)(=O)NCCC1CCOCC1` [Example 537, 5-({4-[(2-cyanoethyl)amino]phenyl}sulfonyl)-2-isopropyl-N-[2-(tetrahydro-2H-pyran-4-yl)ethyl]benzenesulfonamide] registered an IC50 in assay [1] of 700 nM. The figures for the fold induction at 15 µM in assay [2] (setting [3]) and in assay [2] (setting [4]) were 2.9 and 1.1, respectively.

`CC(C)c1ccc(S(=O)(=O)c2cccc(C#N)c2)cc1S(=O)(=O)NCCc1ccccn1` [Example 539, 5-[(3-cyanophenyl)sulfonyl]-2-isopropyl-N-(2-pyridin-2-ylethyl)benzenesulfonamide] had a 50% inhibitory concentration (IC50) in assay [1] of 2600 nM. Moreover, the fold induction at 15 µM in assay [2] (setting [3]) is 2.9; in assay [2] (setting [4]), 1.2.

The molecule `CC(C)c1ccc(S(=O)(=O)c2ccc3[nH]ccc3c2)cc1S(=O)(=O)NCCc1ccccn1` [Example 540, 5-(1H-indol-5-ylsulfonyl)-2-isopropyl-N-(2-pyridin-2-ylethyl)benzenesulfonamide] gave an IC50 in assay [1] of 200 nM. Further, the fold induction at 15 µM in assay [2] (setting [3]) was found to be 3.6; in assay [2] (setting [4]), 1.2.

Regarding `Cc1ccccc1S(=O)(=O)c1ccc(C(C)C)c(S(=O)(=O)NC2CCOCC2)c1` [Example 541, 2-isopropyl-5-[(2-methylphenyl)sulfonyl]-N-(tetrahydro-2H-pyran-4-yl)benzenesulfonamide], in assay [1], the IC50 was 1500 nM. Besides, the fold induction at 15 µM in assay [2] (setting [3]) was 3.5; in assay [2] (setting [4]), 1.2.

As for `Cc1c(Cl)cccc1S(=O)(=O)c1ccc(C(C)C)c(S(=O)(=O)NC2CCOCC2)c1` [Example 542, 5-[(3-chloro-2-methylphenyl)sulfonyl]-2-isopropyl-N-(tetrahydro-2H-pyran-4-yl)benzenesulfonamide], the IC50 in assay [1] was 1400 nM. For the same molecule, the fold induction at 15 µM in assay [2] (setting [3]) came to 2.7; in assay [2] (setting [4]) it was 1.1.

As to `CNc1ccc(S(=O)(=O)c2ccc(C(C)C)c(S(=O)(=O)NCC3CCOCC3)c2)cc1` [Example 543, 2-isopropyl-5-{[4-(methylamino)phenyl]sulfonyl}-N-(tetrahydro-2H-pyran-4-ylmethyl)benzenesulfonamide], the 50% inhibitory concentration (IC50) in assay [1] is 800 nM and 1600 nM. In addition, the results for the fold induction at 15 µM in assay [2] (setting [3]) and in assay [2] (setting [4]) were 2.7 and 1.1, respectively.

Regarding `CC(C)c1ccc(S(=O)(=O)c2ccc(N(C)C)cc2)cc1S(=O)(=O)NC1CCOCC1` [Example 544, 5-{[4-(dimethylamino)phenyl]sulfonyl}-2-isopropyl-N-(tetrahydro-2H-pyran-4-yl)benzenesulfonamide], the IC50 in assay [1] is 800 nM and 1700 nM. In addition, the fold induction at 15 µM came out at 2.7 in assay [2] (setting [3]) and 1.2 in assay [2] (setting [4]).

`CC(C)c1ccc(S(=O)(=O)c2ccc(N(C)C)cc2)cc1S(=O)(=O)NCC1CCOCC1` [Example 545, 5-{[4-(dimethylamino)phenyl]sulfonyl}-2-isopropyl-N-(tetrahydro-2H-pyran-4-ylmethyl)benzenesulfonamide]: the half-inhibitory concentration (IC50) in assay [1] is 2000 nM and 4000 nM. Further, the fold induction at 15 µM in assay [2] (setting [3]) stood at 2.5; in assay [2] (setting [4]) it was 1.1.

With `CC(C)c1ccc(S(=O)(=O)c2ccc(N(C)C)cc2)cc1S(=O)(=O)NCCC1CCOCC1` [Example 546, 5-{[4-(dimethylamino)phenyl]sulfonyl}-2-isopropyl-N-[2-(tetrahydro-2H-pyran-4-yl)ethyl]benzenesulfonamide], the 50% inhibitory concentration (IC50) in assay [1] was 1500 nM and 2600 nM. Moreover, the fold induction at 15 µM in assay [2] (setting [3]) was 2.2; in assay [2] (setting [4]) it was 1.2.
